From patent US10793577B2, “Fused bicyclic compounds for the treatment of disease” (AKARNA THERAPEUTICS, LTD., priority 2014, dated 2020)

These compounds were tested against T1, FXR (Homo sapiens, UniProt Q96RI1) (assay: FXR agonist transactivation assay (luciferase reporter)). Conditions: transiently transfected cells, 18 h stimulation with test compound, luciferase normalized to Renilla.
T1 construct: expressed in transfected cells
T1 sequence (Q96RI1 1-486): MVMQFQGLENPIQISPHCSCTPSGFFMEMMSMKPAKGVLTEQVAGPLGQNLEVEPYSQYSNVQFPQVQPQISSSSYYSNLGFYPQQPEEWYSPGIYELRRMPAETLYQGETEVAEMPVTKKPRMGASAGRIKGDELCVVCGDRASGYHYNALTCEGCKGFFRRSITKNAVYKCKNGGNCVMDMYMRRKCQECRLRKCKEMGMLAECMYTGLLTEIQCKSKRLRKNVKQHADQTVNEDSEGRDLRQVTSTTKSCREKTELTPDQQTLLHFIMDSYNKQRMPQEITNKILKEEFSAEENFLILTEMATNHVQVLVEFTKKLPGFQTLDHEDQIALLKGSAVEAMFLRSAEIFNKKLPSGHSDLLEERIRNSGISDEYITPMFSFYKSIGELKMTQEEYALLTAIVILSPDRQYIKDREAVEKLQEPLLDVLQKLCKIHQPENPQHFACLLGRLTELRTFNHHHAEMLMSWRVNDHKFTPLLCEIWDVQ
Format: cell-based
Protocol: Example 21: FXR Agonist Transactivation Assay
For the transactivation assay, cells were transiently transfected with 100 ng of reporter vector and 10 ng of expression plasmid. Forty nanograms of pGL4.74 was used as internal control for transfection efficiency. The pGEM vector was added to normalize the amounts of DNA transfected in each assay (2 μg). All transfections were performed using FuGENE HD (Roche, Mannheim, Germany) according to the manufacturer's protocol. Twenty-four hours after transfection, cells were stimulated with increasing concentrations of the test compounds for further 18 h. Control cultures receive vehicle (0.1% DMSO) alone. Luciferase values were normalized with Renilla reniformis luciferase units, for transfection efficiency.

| Compound | EC50 [µM] |
| --- | --- |
| CC(C)OC(=O)C1=CN(C(=O)c2ccc(F)cc2)CC(C)(C)c2c1[nH]c1ncc(Cl)cc21 [Compound 11, propan-2-yl 4-chloro-12-(4-fluorobenzoyl)-14,14-dimethyl-6,8,12-triazatricyclo[7.5.0.02,7]tetradeca-1(9),2,4,6,10-pentaene-10-carboxylate] | 1 to 10 |
| propan-2-yl 4-chloro-12-(4-(2-morpholinoethoxy)benzoyl)-14,14-dimethyl-6,8,12-triazatricyclo[7.5.0.02,7]tetradeca-1(9),2,4,6,10-pentaene-10-carboxylate [Compound 89] | < 1 |
| CC(C)OC(=O)C1=CN(C(=O)c2ccc(F)c(F)c2)CC(C)(C)c2c1[nH]c1cc(OCCO)c(Cl)nc21 [Compound 72, Propan-2-yl 12-(3,4-difluorobenzoyl)-14,14-dimethyl-5-(2-hydroxyethoxy)-4-chloro-3,8,12-triazatricyclo[7.5.0.02,7]tetradeca-1(9),2,4,6,10-pentaene-10-carboxylate] | 1 to 10 |
| COc1ccc2[nH]c3c(c2n1)C(C)(C)CN(C(=O)c1ccc(F)cc1)C=C3C(=O)OC(C)C [Compound 43, propan-2-yl 12-(4-fluorobenzoyl)-14,14-dimethyl-4-methoxy-3,8,12-triazatricyclo[7.5.0.02,7]tetradeca-1(9),2,4,6,10-pentaene-10-carboxylate] | < 1 |
| CC(C)OC(=O)C1=CN(C(=O)c2ccc(F)c(F)c2)CC(C)(C)c2c1[nH]c1cccnc21 [Compound 55, Propan-2-yl 12-(3,4-difluorobenzoyl)-14,14-dimethyl-3,8,12-triazatricyclo[7.5.0.02,7]tetradeca-1(9),2,4,6,10-pentaene-10-carboxylate] | < 1 |
| COc1nc2c3c([nH]c2cc1Cl)C(C(=O)OC(C)C)=CN(C(=O)c1ccc(F)c(F)c1)CC3(C)C [Compound 101, propan-2-yl 5-chloro-4-methoxy-12-(3,4-difluorobenzoyl)-14,14-dimethyl-3,8,12-triazatricyclo[7.5.0.02,7]tetradeca-1(9),2,4,6,10-pentaene-10-carboxylate] | < 1 |
| CC(C)OC(=O)C1=CN(C(=O)c2ccc(F)c(F)c2)CC(C)(C)c2c1[nH]c1ncc(Cl)cc21 [Compound 10, propan-2-yl 4-chloro-12-(3,4-difluorobenzoyl)-14,14-dimethyl-6,8,12-triazatricyclo[7.5.0.02,7]tetradeca-1(9),2,4,6,10-pentaene-10-carboxylate] | < 1 |
| COc1ccc2[nH]c3c(c2n1)C(C)(C)CN(C(=O)c1ccc(OCCN2CCOCC2)cc1)C=C3C(=O)OC(C)C [Compound 91, propan-2-yl 12-(4-(2-morpholinoethoxy)benzoyl)-14,14-dimethyl-4-(methoxy)-3,8,12-triazatricyclo[7.5.0.02,7]tetradeca-1(9),2,4,6,10-pentaene-10-carboxylate] | < 1 |
| CC(C)OC(=O)C1=CN(C(=O)c2ccc(F)c(F)c2)CC(C)(C)c2c1[nH]c1ncccc21 [Compound 57, propan-2-yl 12-(3,4-difluorobenzoyl)-14,14-dimethyl-6,8,12-triazatricyclo[7.5.0.02,7]tetradeca-1(9),2,4,6,10-pentaene-10-carboxylate] | < 1 |
| CCOC(=O)C1=CN(C(=O)c2ccc(F)c(F)c2)CC(C)(C)c2c1[nH]c1cccnc21 [Compound 56, eth-2-yl 12-(3,4-difluorobenzoyl)-14,14-dimethyl-3,8,12-triazatricyclo[7.5.0.02,7]tetradeca-1(9),2,4,6,10-pentaene-10-carboxylate] | < 1 |
| CC(C)OC(=O)C1=CN(C(=O)c2ccc(F)c(F)c2)CC(C)(C)c2c1[nH]c1cc(Cl)cnc21 [Compound 22, Propan-2-yl 5-chloro-12-(3,4-difluorobenzoyl)-14,14-dimethyl-3,8,12-triazatricyclo[7.5.0.02,7]tetradeca-1(9),2,4,6,10-pentaene-10-carboxylate] | < 1 |
| CC(C)OC(=O)C1=CN(C(=O)c2ccc(F)c(F)c2)CC(C)(C)c2c1[nH]c1ncc(F)cc21 [Compound 59, propan-2-yl 4-fluoro-12-(3,4-difluorobenzoyl)-14,14-dimethyl-6,8,12-triazatricyclo[7.5.0.02,7]tetradeca-1(9),2,4,6,10-pentaene-10-carboxylate] | < 1 |
| CC(C)OC(=O)C1=CN(C(=O)c2ccc(F)c(F)c2)CC(C)(C)c2c1[nH]c1ccc(OCCO)nc21 [Compound 84, Propan-2-yl 12-(3,4-difluorobenzoyl)-14,14-dimethyl-4-(2-hydroxyethoxy)-3,8,12-triazatricyclo[7.5.0.02,7]tetradeca-1(9),2,4,6,10-pentaene-10-carboxylate] | < 1 |
| CC(C)OC(=O)C1=CN(C(=O)c2ccc(F)c(F)c2)CC(C)(C)c2c1[nH]c1cc(F)cnc21 [Compound 33] | < 1 |
| COc1ccc2[nH]c3c(c2n1)C(C)(C)CN(C(=O)c1ccc(F)c(F)c1)C=C3C(=O)OC(C)C [Compound 42, Propan-2-yl 12-(3,4-difluorobenzoyl)-14,14-dimethyl-4-methoxy-3,8,12-triazatricyclo[7.5.0.02,7]tetradeca-1(9),2,4,6,10-pentaene-10-carboxylate] | < 1 |
| CC(C)OC(=O)C1=CN(C(=O)c2ccc(Cl)c(Cl)c2)CC(C)(C)c2c1[nH]c1ncc(Cl)cc21 [Compound 9, Propan-2-yl 4-chloro-12-(3,4-dichlorobenzoyl)-14,14-dimethyl-6,8,12-triazatricyclo[7.5.0.02,7]tetradeca-1(9),2,4,6,10-pentaene-10-carboxylate] | 1 to 10 |
| CC(C)NC(=O)C1=CN(C(=O)c2ccc(F)c(F)c2)CC(C)(C)c2c1[nH]c1cc(Cl)cnc21 [Compound 85, 3-chloro-8-(3,4-difluorobenzoyl)-N-isopropyl-10,10-dimethyl-5,8,9,10-tetrahydropyrido[2′,3′:4,5]pyrrolo[2,3-d]azepine-6-carboxamide] | < 1 |
| CCOC(=O)C1=CN(C(=O)c2ccc(F)c(F)c2)CC(C)(C)c2c1[nH]c1ncccc21 [Compound 58, eth-2-yl 12-(3,4-difluorobenzoyl)-14,14-dimethyl-6,8,12-triazatricyclo[7.5.0.02,7]tetradeca-1(9),2,4,6,10-pentaene-10-carboxylate] | < 1 |
